Test results as given in patent publication EP1083873B1 (MGI GP, Inc., priority 1998, dated 1999).

These molecules were tested on C57 black 6 mice (assay: In vivo hair generation test, Experiment A (shaved C57 black 6 mice, topical)). Conditions: 30 µM topical in 20% propylene glycol, 3 applications over 5 days, after six weeks.
From the text: Care was taken not to nick or cause abrasion to the underlaying dermal layers. The animals were in anagen growth phase, as indicated by the pinkish color of the skin. […] Hair growth was quantitated by the percent of shaved area covered by new hair growth during this time period.
For `CCC(C)(C)C(=O)C(=O)N1CCC[C@H]1C(=O)OCCCc1cccnc1` [GPI 1046, 3-(3-pyridyl)-1-propyl (2s)-1-(3,3-dimethyl-1,2-dioxopentyl)-2-pyrrolidinecarboxylate], the “hair regrowth in the shaved area” value was “essentially complete hair regrowth”.

What follows are molecules tested on C57 black 6 mice (assay: In vivo hair generation test, Experiment B (shaved C57 Black 6 mice, topical, 14 days)). Conditions: one micromole per milliliter topical, three times per week, 14 days after initiation of treatment.
Method: Care was taken not to nick or cause abrasion to the underlying dermal layers. The animals were in anagen growth phase when shaved. […] The animals were treated three times per week, and hair growth was evaluated 14 days after initiation of treatment.
With `CCC(C)(C)C(=O)C(=O)N1CCCC[C@H]1C(=O)SCCC(c1ccccc1)c1ccccc1` [GPI 1511] the “hair growth (Figure 5, relative hair growth index)” value was “dramatic hair growth”.
For `CCC(C)(C)C(=O)C(=O)N1CCC[C@H]1C(=O)SCCC(c1ccccc1)c1ccccc1` [GPI 1234], the “hair growth (Figure 5, relative hair growth index)” value was “dramatic hair growth”.

These molecules were tested against FKBP12 (Homo sapiens, UniProt P62942) (assay: Ki test procedure: inhibition of peptidyl-prolyl isomerase (rotamase) activity, chymotrypsin-coupled assay). Conditions: not given.
FKBP12, sequence (P62942 whole entry, species assumed): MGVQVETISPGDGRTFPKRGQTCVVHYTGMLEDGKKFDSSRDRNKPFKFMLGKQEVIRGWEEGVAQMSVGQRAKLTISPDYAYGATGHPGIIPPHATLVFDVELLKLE
Type: biochemical
From the text: The inhibition of the prolyl peptidyl cis-trans isomerase activity of FKBP may be measured as an indicator of this affinity.
Inhibition of the peptidyl-prolyl isomerase (rotamase) activity of the compounds used in the inventive methods and pharmaceutical compositions can be evaluated by known methods described in the literature (Harding et al., Nature, 1989, 341:758-760; Holt et al. J. Am. Chem. Soc., 115:9923-9938).
The cis-trans isomerization of an alanine-proline bond in a model substrate, N-succinyl-Ala-Ala-Pro-Phe-p-nitroanilide, is monitored spectrophotometrically in a chymotrypsin-coupled assay, which releases paranitroanilide from the trans form of the substrate. The inhibition of this reaction caused by the addition of different concentrations of inhibitor is determined, and the data is analyzed as a change in first-order rate constant as a function of inhibitor concentration to yield the apparent Ki values.
In a plastic cuvette are added […] of ice cold assay buffer (25 mM HEPES, pH 7.8, 100 mM NaCl), 10 mL of FKBP (2.5 mM in 10 mM Tris-Cl pH 7.5, 100 mM NaCl, 1 mM dithiothreitol), […] of chymotrypsin (50 mg/ml in 1 mM HCl) and […] of test compound at various concentrations in dimethyl sulfoxide. The reaction is initiated by the addition of 5 mL of substrate (succinyl-Ala-Phe-Pro-Phe-para-nitroanilide, 5 mg/mL in 2.35 mM LiCl in trifluoroethanol).
The absorbance at 390 nm versus time is monitored for 90 seconds using a spectrophotometer and the rate constants are determined from the absorbance versus time data files.
Work on `COc1ccc(CCCSC(=O)C2CCCCN2C(=O)C(=O)c2ccccc2)cc1` (stereo not drawn) [Compound 43] yielded a Ki of 0.259 µM.
For `CC(C)(C)C(=O)C(=O)N1CCCCC1C(=O)SCCCCc1ccccc1` (stereo not drawn) [Compound 39], the Ki was 0.347 µM.
`CCC(C)(C)C(=O)C(=O)N1CCC[C@H]1C(=O)SCCCc1ccccc1F` [Compound 57] was tested, and the Ki was 0.057 µM.
In the case of `O=C(C(=O)N1CCC[C@H]1C(=O)SCCCCc1ccccc1)C1CCCCC1` [Compound 33], the Ki is reported as 1.7 µM.
In the case of `CCC(C)(C)C(=O)C(=O)N1CCC[C@H]1C(=O)SCCCc1cccc(Cl)c1` [Compound 54], the Ki is reported as 0.037 µM.
For `O=C(C(=O)N1CCC[C@H]1C(=O)SCCc1ccccc1)C1CCCCC1` [Compound 12], the Ki was 0.442 µM.
`CCC(C)(C)C(=O)C(=O)N1CCC[C@H]1C(=O)SCCCc1ccccc1Cl` [Compound 61] gave a Ki of 0.139 µM.
Molecule `O=C(C(=O)N1CCC[C@H]1C(=O)SCCCc1cccnc1)C1CCCCC1` [Compound 35] has a Ki of 0.062 µM.
Work on `CCC(C)(C)C(=O)C(=O)N1CCCC1C(=O)SCCCC(c1ccc(F)cc1)c1ccc(F)cc1` (stereo not drawn) [Compound 46] yielded a Ki of 0.757 µM.
Work on `CCC(C)(C)C(=O)C(=O)N1CCCCC1C(=O)SCCCCc1ccccc1` (stereo not drawn) [Compound 59] yielded a Ki of 0.962 µM.
Molecule `O=C(C(=O)N1CCCCC1C(=O)SCCc1ccccc1)c1ccccc1` (stereo not drawn) [Compound 14] has a Ki of 0.313 µM.
For `CC(C)(C)C(=O)C(=O)N1CCCCC1C(=O)SCCCc1ccccc1` (stereo not drawn) [Compound 29], the Ki was 0.059 µM.
`CCC(C)(C)C(=O)C(=O)N1CCC[C@H]1C(=O)SCCCc1cccc2ccccc12` [Compound 47] was tested, and the Ki was 0.021 µM.
For `CCC(C)(C)C(=O)C(=O)N1CCC[C@H]1C(=O)SCCCc1cccc(F)c1` [Compound 58], the Ki was 0.079 µM.
In the case of `CCC(C)(C)C(=O)C(=O)N1CCCCC1C(=O)SCCCc1cccc(F)c1` (stereo not drawn) [Compound 64], the Ki is reported as 0.163 µM.
Molecule `CCC(C)(C)C(=O)C(=O)N1CCCCC1C(=O)SCCCc1ccccc1` (stereo not drawn) [Compound 60] has a Ki of 0.09 µM.

Same assay, conditions: apparent Ki, rotamase inhibition
Molecule `CCC(C)(C)C(=O)C(=O)N1CCCCC1C(=O)SCCCc1ccc2ccccc2c1` [Compound 53, 3-(2-Naphthyl)propyl (2R, S) -1-(3,3-dimethyl-2-oxopentanoyl)-2-piperidinecarbothioate] has a Ki of 0.261 µM.

Same assay, conditions: apparent Ki, rotamase inhibition; read-out: Ki
For `CCC(C)(C)C(=O)C(=O)N1CCC[C@H]1C(=O)SCc1csc2ccccc12` [Compound 11, (3-Thioindolyl) methyl (2S) -1-(3,3-dimethyl-1,2-dioxopentyl)-2-pyrrolidinecarbothioate], the Ki was 0.299 µM.
